Results reported in ChEMBL document CHEMBL4393714, “Multi-targeting protein-protein interaction inhibitors: Evolution of macrocyclic ligands with embedded carbohydrates (MECs) to improve selectivity” (Eur J Med Chem, 2019).

Experiments:
Rattus norvegicus [1] = species: Rattus norvegicus; assay: Displacement of [3H] batrachotoxinin from rat sodium channel site 2 at 10 uM measured after 60 mins by scintillation counter method relative to control
[2] = target: Small conductance calcium-activated potassium channel (Rattus norvegicus) (UniProt P70604+P70606+P70605); assay: Displacement of [125I]apamin from rat brain SKCa at 10 uM measured after 60 mins by scintillation counter method relative to control
Rattus norvegicus [3] = species: Rattus norvegicus; assay: Displacement of [125I]alpha dendrotoxin from rat potassium channel at 10 uM measured after 60 mins by scintillation counter method relative to control
[4] = target: Cav1.2 (L-type calcium channel subunit alpha-1C) (Rattus norvegicus, UniProt P22002); assay: Displacement of [3H] D888 from rat Cav1.2 (L-type) at 10 uM measured after 120 mins by scintillation counter method relative to control; settings: probe [3H] D888
[5] = target: Vasopressin V1a receptor (Homo sapiens) (UniProt P37288); assay: Displacement of [3H] AVP from human recombinant vasopressin V1A receptor at 10 uM measured after 60 mins by scintillation counter method relative to control
Chain of Vasopressin V1a receptor (Homo sapiens) (P37288 whole entry, looked up): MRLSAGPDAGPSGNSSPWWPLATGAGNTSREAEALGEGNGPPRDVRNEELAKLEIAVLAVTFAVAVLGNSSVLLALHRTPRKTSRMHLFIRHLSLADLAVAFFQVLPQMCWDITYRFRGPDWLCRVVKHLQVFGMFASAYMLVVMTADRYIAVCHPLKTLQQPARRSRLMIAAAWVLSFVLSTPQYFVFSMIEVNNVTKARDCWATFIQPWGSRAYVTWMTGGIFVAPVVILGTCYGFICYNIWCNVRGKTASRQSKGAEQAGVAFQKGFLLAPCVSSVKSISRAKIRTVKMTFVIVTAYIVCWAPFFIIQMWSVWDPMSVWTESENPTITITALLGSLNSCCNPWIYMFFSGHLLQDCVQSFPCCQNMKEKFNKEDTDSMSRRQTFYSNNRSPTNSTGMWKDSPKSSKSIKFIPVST

[6] = target: Somatostatin receptor type 1 (Homo sapiens) (UniProt P30872); assay: Displacement of [125I] tyr11-somatostatin-14 from human recombinant somatostatin receptor type1 at 10 uM measured after 180 mins by scintillation counter method relative to control
Chain of Somatostatin receptor type 1 (Homo sapiens) (P30872 whole entry): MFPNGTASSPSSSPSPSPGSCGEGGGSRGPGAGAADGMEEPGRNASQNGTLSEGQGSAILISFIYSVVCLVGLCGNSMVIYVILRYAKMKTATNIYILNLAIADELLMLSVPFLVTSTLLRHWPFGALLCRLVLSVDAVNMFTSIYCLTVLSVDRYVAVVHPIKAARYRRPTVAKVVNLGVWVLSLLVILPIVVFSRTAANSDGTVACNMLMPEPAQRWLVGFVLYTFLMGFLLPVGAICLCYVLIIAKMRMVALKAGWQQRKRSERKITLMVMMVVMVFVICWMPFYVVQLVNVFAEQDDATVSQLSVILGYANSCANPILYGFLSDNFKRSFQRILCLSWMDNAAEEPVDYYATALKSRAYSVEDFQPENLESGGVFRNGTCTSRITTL

[7] = target: 5-hydroxytryptamine receptor 5A (Homo sapiens) (UniProt P47898); assay: Displacement of [3H]LSD from human recombinant 5-HT5A receptor at 10 uM measured after 120 mins by scintillation counter method relative to control
Chain of 5-hydroxytryptamine receptor 5A (Homo sapiens) (P47898 whole entry): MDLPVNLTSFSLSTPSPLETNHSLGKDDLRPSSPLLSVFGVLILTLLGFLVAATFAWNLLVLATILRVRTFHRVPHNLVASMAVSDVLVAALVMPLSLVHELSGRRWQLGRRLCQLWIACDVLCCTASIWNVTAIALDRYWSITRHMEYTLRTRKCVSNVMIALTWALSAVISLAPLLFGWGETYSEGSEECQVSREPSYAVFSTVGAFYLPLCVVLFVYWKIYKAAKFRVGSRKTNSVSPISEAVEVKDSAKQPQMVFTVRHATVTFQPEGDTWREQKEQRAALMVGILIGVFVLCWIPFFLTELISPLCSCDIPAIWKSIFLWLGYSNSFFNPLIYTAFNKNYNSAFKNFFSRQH

[8] = target: 5-hydroxytryptamine receptor 3A (Homo sapiens) (UniProt P46098); assay: Displacement of [3H] BRL 43694 from human 5-HT3 at 10 uM measured after 120 mins by scintillation counter method relative to control
Chain of 5-hydroxytryptamine receptor 3A (Homo sapiens) (P46098 whole entry): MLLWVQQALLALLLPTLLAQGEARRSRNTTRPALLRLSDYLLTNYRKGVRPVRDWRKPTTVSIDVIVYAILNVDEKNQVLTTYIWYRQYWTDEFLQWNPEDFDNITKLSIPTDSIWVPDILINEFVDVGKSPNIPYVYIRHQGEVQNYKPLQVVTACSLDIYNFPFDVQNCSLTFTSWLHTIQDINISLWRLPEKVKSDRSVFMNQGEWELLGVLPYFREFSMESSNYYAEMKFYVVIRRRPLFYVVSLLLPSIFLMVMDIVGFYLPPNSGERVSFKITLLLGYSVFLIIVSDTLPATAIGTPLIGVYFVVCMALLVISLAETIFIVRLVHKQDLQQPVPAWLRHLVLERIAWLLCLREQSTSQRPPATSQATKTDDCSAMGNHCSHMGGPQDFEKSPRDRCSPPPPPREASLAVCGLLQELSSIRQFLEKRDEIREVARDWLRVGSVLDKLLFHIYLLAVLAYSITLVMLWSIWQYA

[9] = target: 5-hydroxytryptamine receptor 2B (Homo sapiens, UniProt P41595); assay: Displacement of [125I](+/-)DOI from human recombinant 5-HT2B receptor at 10 uM measured after 60 mins by scintillation counter method relative to control
[10] = target: T1, 5-hydroxytryptamine receptor 2A (Homo sapiens, UniProt P28223); assay: Displacement of [3H] ketanserin from human recombinant 5-HT2A receptor at 10 uM measured after 60 mins by scintillation counter method relative to control
T1 sequence (P28223 whole entry): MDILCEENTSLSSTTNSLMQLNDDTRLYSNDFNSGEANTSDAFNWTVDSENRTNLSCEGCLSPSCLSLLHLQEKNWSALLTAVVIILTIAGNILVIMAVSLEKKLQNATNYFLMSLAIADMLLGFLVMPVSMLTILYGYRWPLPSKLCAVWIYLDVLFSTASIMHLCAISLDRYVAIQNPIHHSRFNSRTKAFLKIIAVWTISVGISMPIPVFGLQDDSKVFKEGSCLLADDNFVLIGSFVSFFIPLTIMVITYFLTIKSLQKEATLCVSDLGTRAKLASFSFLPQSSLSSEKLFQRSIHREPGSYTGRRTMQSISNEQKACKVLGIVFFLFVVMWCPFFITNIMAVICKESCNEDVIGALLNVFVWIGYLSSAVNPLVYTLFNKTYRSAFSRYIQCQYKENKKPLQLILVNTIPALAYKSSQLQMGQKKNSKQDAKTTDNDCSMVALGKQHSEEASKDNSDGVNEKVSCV

[11] = target: 5-hydroxytryptamine receptor 1B (Homo sapiens) (UniProt P28222); assay: Displacement of [3H] GR125743 from human recombinant 5-HT1B receptor at 10 uM measured after 60 mins by scintillation counter method relative to control
Chain of 5-hydroxytryptamine receptor 1B (Homo sapiens) (P28222 whole entry): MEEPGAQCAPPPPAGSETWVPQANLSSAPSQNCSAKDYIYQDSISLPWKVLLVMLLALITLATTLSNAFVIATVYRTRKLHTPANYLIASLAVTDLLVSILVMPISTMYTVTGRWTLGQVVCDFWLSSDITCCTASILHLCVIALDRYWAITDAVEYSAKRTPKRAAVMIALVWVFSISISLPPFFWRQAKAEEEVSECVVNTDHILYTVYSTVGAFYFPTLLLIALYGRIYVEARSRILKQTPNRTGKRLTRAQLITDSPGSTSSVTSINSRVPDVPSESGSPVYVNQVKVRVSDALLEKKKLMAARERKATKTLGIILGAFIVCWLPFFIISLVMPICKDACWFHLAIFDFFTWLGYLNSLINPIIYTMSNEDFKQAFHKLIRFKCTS

[12] = target: 5-hydroxytryptamine receptor 1A (Homo sapiens) (UniProt P08908); assay: Displacement of [3H]-OH-DPAT from human recombinant 5-HT1A receptor at 10 uM measured after 60 mins by scintillation counter method relative to control
Chain of 5-hydroxytryptamine receptor 1A (Homo sapiens) (P08908 whole entry): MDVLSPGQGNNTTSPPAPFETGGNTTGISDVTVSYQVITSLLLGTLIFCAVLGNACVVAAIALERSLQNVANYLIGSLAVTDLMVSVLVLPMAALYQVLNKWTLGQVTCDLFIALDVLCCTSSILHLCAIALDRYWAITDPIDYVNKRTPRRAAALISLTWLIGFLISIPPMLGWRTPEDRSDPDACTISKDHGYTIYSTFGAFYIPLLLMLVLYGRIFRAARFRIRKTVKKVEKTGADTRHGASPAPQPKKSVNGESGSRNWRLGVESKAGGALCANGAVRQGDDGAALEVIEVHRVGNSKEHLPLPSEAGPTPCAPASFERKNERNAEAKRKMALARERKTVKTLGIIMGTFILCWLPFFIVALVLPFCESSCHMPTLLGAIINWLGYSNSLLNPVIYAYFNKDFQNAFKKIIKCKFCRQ

[13] = target: Nociceptin receptor (Homo sapiens) (UniProt P41146); assay: Displacement of [3H]nociceptin from human recombinant ORL1 at 10 uM measured after 60 mins by scintillation counter method relative to control
[14] = target: Mu-type opioid receptor (Homo sapiens) (UniProt P35372); assay: Displacement of [3H] DAMGO from human recombinant mu opioid receptor at 10 uM measured after 120 mins by scintillation counter method relative to control
[15] = target: Kappa-type opioid receptor (Homo sapiens) (UniProt P41145); assay: Displacement of [3H] U69593 from human kappa opioid receptor at 10 uM measured after 60 mins by scintillation counter method relative to control
[16] = target: Neuropeptide Y receptor type 2 (Homo sapiens) (UniProt P49146); assay: Displacement of [125I] peptide YY from human neuropeptide Y2 receptor at 10 uM measured after 60 mins by scintillation counter method relative to control
Chain of Neuropeptide Y receptor type 2 (Homo sapiens) (P49146 whole entry): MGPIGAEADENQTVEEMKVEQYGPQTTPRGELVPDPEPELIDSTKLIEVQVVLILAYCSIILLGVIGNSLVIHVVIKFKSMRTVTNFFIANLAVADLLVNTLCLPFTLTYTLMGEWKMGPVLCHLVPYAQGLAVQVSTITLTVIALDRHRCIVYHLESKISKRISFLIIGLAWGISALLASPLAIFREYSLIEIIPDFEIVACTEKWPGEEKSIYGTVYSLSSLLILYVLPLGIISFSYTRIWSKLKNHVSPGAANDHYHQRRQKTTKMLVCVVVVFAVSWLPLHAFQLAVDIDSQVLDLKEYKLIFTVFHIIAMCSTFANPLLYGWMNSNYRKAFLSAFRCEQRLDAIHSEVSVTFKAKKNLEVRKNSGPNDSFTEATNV

[17] = target: Neuromedin-K receptor (Homo sapiens) (UniProt P29371); assay: Displacement of [3H] HSR 142801 from human recombinant neurokinin beta receptor at 10 uM measured after 120 mins by scintillation counter method
[18] = target: Muscarinic acetylcholine receptor M1 (Homo sapiens) (UniProt P11229); assay: Displacement of [3H]pirenzepine from human recombinant muscarinic 1 receptor at 10 uM measured after 60 mins by scintillation counter method relative to control
Chain of Muscarinic acetylcholine receptor M1 (Homo sapiens) (P11229 whole entry): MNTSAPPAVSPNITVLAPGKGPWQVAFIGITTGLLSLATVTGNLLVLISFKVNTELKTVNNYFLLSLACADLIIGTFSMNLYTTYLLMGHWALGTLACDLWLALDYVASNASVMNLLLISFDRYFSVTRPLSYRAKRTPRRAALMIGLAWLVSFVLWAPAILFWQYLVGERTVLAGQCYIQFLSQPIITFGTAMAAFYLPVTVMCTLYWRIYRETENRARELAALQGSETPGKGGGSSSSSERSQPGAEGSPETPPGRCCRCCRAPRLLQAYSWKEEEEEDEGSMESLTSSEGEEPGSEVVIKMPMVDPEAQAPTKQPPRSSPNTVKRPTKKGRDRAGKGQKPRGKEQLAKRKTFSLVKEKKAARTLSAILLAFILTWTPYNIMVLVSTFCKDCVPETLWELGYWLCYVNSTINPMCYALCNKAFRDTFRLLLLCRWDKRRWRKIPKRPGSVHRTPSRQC

[19] = target: Melatonin receptor type 1A (Homo sapiens) (UniProt P48039); assay: Displacement of [125I]2-iodomelatonin from human recombinant MT 1 receptor at 10 uM measured after 60 mins by scintillation counter method relative to control
[20] = target: Galanin receptor type 2 (Homo sapiens) (UniProt O43603); assay: Displacement of [125I]galanin from human recombinant GAL2 receptor at 10 uM measured after 120 mins by scintillation counter method relative to control
[21] = target: D(1A) dopamine receptor (Homo sapiens) (UniProt P21728); assay: Displacement of [3H]SCH23390 from human recombinant D1 receptor at 10 uM measured after 60 mins by scintillation counter method relative to control
[22] = target: B2 bradykinin receptor (Homo sapiens) (UniProt P30411); assay: Displacement of [3H]bradykinin from human recombinant B2 receptor at 10 uM measured after 60 mins by scintillation counter method relative to control
Chain of B2 bradykinin receptor (Homo sapiens) (P30411 whole entry): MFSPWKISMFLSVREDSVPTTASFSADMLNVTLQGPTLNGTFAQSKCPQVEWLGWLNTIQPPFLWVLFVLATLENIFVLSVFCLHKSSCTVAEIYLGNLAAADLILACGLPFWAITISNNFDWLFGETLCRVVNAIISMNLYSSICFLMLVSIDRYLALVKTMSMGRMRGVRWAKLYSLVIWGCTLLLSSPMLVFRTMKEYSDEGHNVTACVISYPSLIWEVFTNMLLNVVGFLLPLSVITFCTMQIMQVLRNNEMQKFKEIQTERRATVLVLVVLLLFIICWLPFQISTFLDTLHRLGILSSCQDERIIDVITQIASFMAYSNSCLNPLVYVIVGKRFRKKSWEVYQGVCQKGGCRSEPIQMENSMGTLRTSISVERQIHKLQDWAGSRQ

[23] = target: Adrenergic receptor alpha-2 (Rattus norvegicus) (UniProt P22086+P19328+P22909); assay: Displacement of [3H] RX 821002 from rat alpha2 adreno receptor at 10 uM measured after 60 mins by scintillation counter method relative to control; format: protein assay
[24] = target: Adrenergic receptor alpha-1 (Rattus norvegicus) (UniProt P15823+P23944+P43140); assay: Displacement of [3H] prazosin from rat alpha1 adreno receptor at 10 uM measured after 60 mins by scintillation counter method relative to control; format: protein assay
Substance-K receptor = target: T2, Substance-K receptor (Homo sapiens, UniProt P21452); assay: Displacement of [125I]NKA from human recombinant NK2 receptor measured after 60 mins by scintillation counter method
T2 sequence (P21452 whole entry): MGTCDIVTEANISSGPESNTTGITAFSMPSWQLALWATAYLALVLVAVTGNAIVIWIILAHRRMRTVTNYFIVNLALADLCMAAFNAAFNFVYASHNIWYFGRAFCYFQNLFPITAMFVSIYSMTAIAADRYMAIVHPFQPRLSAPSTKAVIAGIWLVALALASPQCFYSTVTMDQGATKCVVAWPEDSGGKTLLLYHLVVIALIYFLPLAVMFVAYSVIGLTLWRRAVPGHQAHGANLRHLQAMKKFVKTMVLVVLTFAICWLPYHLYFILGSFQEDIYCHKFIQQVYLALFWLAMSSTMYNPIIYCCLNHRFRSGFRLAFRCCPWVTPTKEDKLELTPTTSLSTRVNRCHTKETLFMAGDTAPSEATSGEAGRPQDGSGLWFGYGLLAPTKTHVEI

[25] = target: T1, 5-hydroxytryptamine receptor 2A; assay: Displacement of [3H] ketanserin from human recombinant 5-HT2A receptor measured after 60 mins by scintillation counter method
[26] = target: 5-hydroxytryptamine receptor 2C (Homo sapiens, UniProt P28335); assay: Displacement of [3H] mesulergine from human recombinant 5-HT2C receptor measured after 120 mins by scintillation counter method
Chain of 5-hydroxytryptamine receptor 2C (P28335 whole entry): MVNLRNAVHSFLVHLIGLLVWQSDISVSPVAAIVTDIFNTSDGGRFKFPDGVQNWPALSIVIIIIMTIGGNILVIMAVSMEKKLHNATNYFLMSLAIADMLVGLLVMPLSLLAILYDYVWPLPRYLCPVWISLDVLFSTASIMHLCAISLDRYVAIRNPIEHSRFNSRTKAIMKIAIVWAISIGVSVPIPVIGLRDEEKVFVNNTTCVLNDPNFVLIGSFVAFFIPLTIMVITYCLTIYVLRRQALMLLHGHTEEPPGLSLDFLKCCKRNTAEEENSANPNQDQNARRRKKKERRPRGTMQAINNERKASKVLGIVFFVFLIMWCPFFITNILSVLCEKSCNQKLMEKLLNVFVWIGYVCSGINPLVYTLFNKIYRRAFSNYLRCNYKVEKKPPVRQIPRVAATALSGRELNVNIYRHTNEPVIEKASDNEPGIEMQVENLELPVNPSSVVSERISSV

Structure (SMILES): CC(C)CCO[C@@H]1[C@H]2OC(C)(C)O[C@H]2[C@H]2Cn3cc(nn3)COCCCCCCN(CCc3ccc4ccccc4c3)CC[C@H]1O2
- inhibition (Rattus norvegicus [1]): 102%
- inhibition [2]: 1.4%
- inhibition (Rattus norvegicus [3]): 13.4%
- inhibition at 2 h, 10 µM [4]: 90.5%
- inhibition [5]: 19%
- inhibition [6]: 14%
- inhibition [7]: 89%
- inhibition [8]: 25.2%
- inhibition [9]: 81.6%
- inhibition [10]: 93.2%
- inhibition [11]: 19%
- inhibition [12]: 90.2%
- inhibition [13]: 9.9%
- inhibition [14]: 96.5%
- inhibition [15]: 77.9%
- inhibition [16]: 10.8%
- inhibition [17]: 48.3%
- inhibition [18]: 31%
- inhibition [19]: 29.2%
- Activity [20]: 17.4%
- inhibition [21]: 21.5%
- Activity [22]: 9.4%
- inhibition [23]: 5%
- inhibition [24]: 57.7%
- IC50 (Substance-K receptor): 260 nM
- Ki (Substance-K receptor): 140 nM
- IC50 [25]: 1800 nM
- Ki [25]: 970 nM
- IC50 [26]: > 100000 nM
- Ki [26]: > 100000 nM
